Experiments:
[1] = tested on: Ba/F3 cells expressing FLT3-ITD-D835Y; assay: cells; conditions: Mus musculus, BaF3, 48 h, read-out: Cell growth inhibition IC50
Description: (§1) A detailed protocol is provided in the online resource.
(§2) To examine the effect of ASP2215 on cell viability, MV4-11, MOLM-13, and Ba/F3 cells expressing either FLT3-ITD, FLT3-D835Y, FLT3-ITD-D835Y, FLT3-ITD-F691L or FLT3-ITD-F691I were seeded into 96-well white plates (Nunc F96 MicroWell™ Plates, white; Thermo Fisher Scientific Inc., Waltham, MA) at 1000 cells/well in Iscove’s Modified Dulbecco’s Medium, 500 cells/well in RPMI 1640 or 1000 cells/well in RPMI 1640, respectively. All cell lines were cultured overnight in a humidified incubator at 37°C with 5% CO2 in media supplemented with 10% heat-inactivated FBS.
(§3) After treatment, the CellTiter-Glo® Luminescent Cell Viability Assay (Promega) was used according to the manufacturer’s instructions and luminescence was measured using an ARVO-HTS plate reader (Perkin Elmer Inc., Waltham, MA). The assay was performed in either triplicate or quadruplicate. […] The geometric mean was calculated from three individual experiments.
(§4) The mutants of FLT3 (NM_004119), FLT3-D835Y (gat to tat), FLT3-ITD (insertion of […] at 1799 position of CDS), FLT3-ITD-F691I (ttt to att), FLT3-ITD-F691L (ttt to ctt), FLT3-ITD-D835Y were encoded into pMX-puro vector (Cell Biolabs, Inc., San Diego, CA), and transfected with FuGENE-HD (Promega) into Platinum-E cells. […]

[2] = tested on: Ba/F3 cells expressing FLT3-ITD; assay: cells; conditions: Mus musculus, BaF3, 48 h, read-out: Cell growth inhibition IC50
Description: as §1, §2, §3, §4

MV4–11 tumors = assay: MV4–11 subcutaneous xenograft antitumor activity; type: in vivo, mice; conditions: 28 days; for Mice with complete tumor regression: n = 6
Description: Once tumor growth had been confirmed, mice xenografted with MV4–11 cells were monitored for 28 days; mice xenografted with Ba/F3 cells expressing FLT3 mutations were monitored for 7 days. Tumor diameter was measured using a caliper, and tumor volume was determined by calculating the volume of an ellipsoid using the formula: length × width^2 × 0.5. Body weight was measured using a standard balance. Data are expressed as mean ± SEM from n = 6 mice/group (MV4–11) and n = 5 mice/group (Ba/F3).
After tumor establishment, mice were divided into groups such that the mean tumor volume was approximately equal in each group.

phosphorylated FLT3 = target: T1, phosphorylated FLT3 (Homo sapiens, UniProt P36888, INS600HVDFREYEYD); assay: ELISA for phosphorylated FLT3 / total FLT3 in MV4-11 xenograft tumors; type: in vivo, mice
T1 construct: MV4–11 cells, which endogenously express FLT3-ITD; from tissue; host or cells: MV4-11 xenograft tumours from nude mice
T1 sequence (P36888 with tags, fused parts or gaps INS600HVDFREYEYD): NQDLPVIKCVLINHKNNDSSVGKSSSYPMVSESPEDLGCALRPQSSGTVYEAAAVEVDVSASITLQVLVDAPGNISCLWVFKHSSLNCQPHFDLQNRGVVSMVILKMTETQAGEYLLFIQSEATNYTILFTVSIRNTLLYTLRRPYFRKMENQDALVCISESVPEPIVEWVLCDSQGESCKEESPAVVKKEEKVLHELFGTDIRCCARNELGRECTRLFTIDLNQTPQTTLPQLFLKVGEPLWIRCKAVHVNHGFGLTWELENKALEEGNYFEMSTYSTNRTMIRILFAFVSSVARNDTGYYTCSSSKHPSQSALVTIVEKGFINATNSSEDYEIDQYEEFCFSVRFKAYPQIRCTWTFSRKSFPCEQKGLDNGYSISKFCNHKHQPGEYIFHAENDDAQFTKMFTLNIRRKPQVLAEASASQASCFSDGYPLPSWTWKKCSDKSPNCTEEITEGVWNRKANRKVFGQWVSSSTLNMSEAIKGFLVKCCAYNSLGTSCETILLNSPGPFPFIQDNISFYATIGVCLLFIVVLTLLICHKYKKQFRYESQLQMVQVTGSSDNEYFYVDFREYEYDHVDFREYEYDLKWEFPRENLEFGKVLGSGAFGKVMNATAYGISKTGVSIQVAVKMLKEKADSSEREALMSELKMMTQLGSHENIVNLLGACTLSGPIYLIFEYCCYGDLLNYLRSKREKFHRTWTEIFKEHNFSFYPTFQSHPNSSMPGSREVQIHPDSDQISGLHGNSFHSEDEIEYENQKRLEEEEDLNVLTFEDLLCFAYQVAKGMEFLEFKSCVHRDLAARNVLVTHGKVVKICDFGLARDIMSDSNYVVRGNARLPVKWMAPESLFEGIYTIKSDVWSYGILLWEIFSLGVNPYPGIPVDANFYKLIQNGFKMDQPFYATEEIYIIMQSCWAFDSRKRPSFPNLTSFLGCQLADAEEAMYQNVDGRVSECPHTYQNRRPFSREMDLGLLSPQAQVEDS
Description: Detailed protocols can be found in the online resource.
After 1 month, mice were divided into groups, with each group having approximately the same mean tumor volume.
MULTI-ARRAY® 96-well plates (Meso Scale Discovery, Rockville, MD) were coated with capture antibodies for phosphorylated FLT3 or total FLT3 (DuoSet® IC, R&D systems, Minneapolis, MN) and incubated overnight at 4°C with shaking. After washing with TBS-T, coated plates were blocked with 3% MSD® Blocker-A (Meso Scale Discovery) in TBS-T for 1 h at room temperature and then incubated with total protein lysates derived from MV4-11 xenografted tumors (500 μg/well for phosphorylated FLT3 and 20 μg/well for FLT3), overnight at 4°C. Following a wash step, anti-phosphotyrosine antibody (clone 4G10®, Biotin Conjugate [Millipore, Billerica, MA]) for the detection of phosphorylated FLT3 or the DuoSet® IC FLT3 detection antibody for total FLT3 were added to the plate and incubated for 2 h at room temperature. Wells were then washed and incubated with MSD® SULFO-TAG Labeled Streptavidin (Meso Scale Discovery) for 1 h at room temperature, followed by the addition of MSD® Read Buffer (Meso Scale Discovery). Electrochemiluminescent signals were measured using a SECTOR® imager (Meso Scale Discovery). Phosphorylation levels were normalized to total FLT3 levels in each group (3 mice/group except the point at 1 h after the administration of 1 mg/kg [2 mice]) relative to the mean value of the control group (5 mice/group). Data are reported as mean ± SEM.

MV4–11 cells = assay: CellTiter-Glo cell viability; type: cell-based; conditions: Homo sapiens, MV4-11, 120 h; 5 days of treatment; read-out: Growth inhibition mean IC50
Description: as §1
The assay was performed in either triplicate or quadruplicate. […] The geometric mean was calculated from three individual experiments.

Compound: CCc1nc(C(N)=O)c(Nc2ccc(N3CCC(N4CCN(C)CC4)CC3)c(OC)c2)nc1NC1CCOCC1 [gilteritinib]
- IC50 [1]: 2.1 nM
- IC50 [2]: 1.8 nM
- Growth inhibition of MV4–11 tumors (MV4–11 tumors; 1 mg/kg/day oral once daily): 63%
- Growth inhibition of MV4–11 tumors (MV4–11 tumors; 3 mg/kg/day oral once daily): 80%
- Tumor regression (MV4–11 tumors; 6 mg/kg/day oral once daily): 93%
- Mice with complete tumor regression (MV4–11 tumors; 6 mg/kg/day): Four of the six mice
- Tumor regression (MV4–11 tumors; 10 mg/kg/day oral once daily): 100%
- Mice with complete tumor regression (MV4–11 tumors; 10 mg/kg/day): all six mice
- Phospho-FLT3 state in tumor (phosphorylated FLT3; single oral 1 mg/kg, by 24 h): returned to the pre-treatment level
- Decrease in phospho-FLT3 in tumor (phosphorylated FLT3; single oral 10 mg/kg, 24 h period): maintained throughout the 24 h experimental period
- Decrease of phosphorylated FLT3 in tumor compared with control (phosphorylated FLT3; within 1 h after single oral 1–10 mg/kg): approximately 40%
- IC50 (MV4–11 cells): 0.92 nM

Source: article PMC5613053 (Investigational New Drugs, 2017)
